Experimental data taken from patent publication US20040127504A1, “Benzimidazoles that are useful in treating sexual dysfunction” (priority 2002, published 2004).

Test system: not given
Conditions: not given

melting point | SMILES
144 to 145 °C | Oc1ccc(N2CCN(Cc3nc4ccccc4[nH]3)CC2)nc1 [6-[4-(1H-benzimidazol-2-ylmethyl)piperazin-1-yl]pyridin-3-ol]
198 to 200 °C | c1cnc(N2CCN(Cc3nc4ccccc4[nH]3)CC2)nc1 [Example 2, 2-[(4-pyrimidin-2-ylpiperazin-1-yl)methyl]-1H-benzimidazole]
208 to 210 °C | N#Cc1cccnc1N1CCN(Cc2nc3ccccc3[nH]2)CC1 [Example 4, 2-[4-(1H-benzimidazol-2-ylmethyl)piperazin-1-yl]nicotinonitrile]
203 to 205 °C | c1ccc2[nH]c(CN3CCN(c4nccs4)CC3)nc2c1 [Example 7, 2-{[4-(1,3-thiazol-2-yl)piperazin-1-yl]methyl}-1H-benzimidazole]
245 to 246 °C | Clc1ccccc1N1CCN(Cc2nc3ccccc3[nH]2)CC1 [Example 13, 2-{[4-(2-chlorophenyl)piperazin-1-yl]methyl}-1H-benzimidazole]
262 to 264 °C | Fc1ccccc1N1CCN(Cc2nc3ccccc3[nH]2)CC1 [Example 14, 2-{[4-(2-fluorophenyl)piperazin-1-yl]methyl}-1H-benzimidazole]
206 to 209 °C | Oc1ccc(N2CCN(Cc3nc4ccccc4[nH]3)CC2)cc1 [Example 17, 4-[4-(1H-benzimidazol-2-ylmethyl)piperazin-1-yl]phenol]
208 to 216 °C | Oc1ccccc1N1CCN(Cc2nc3ccccc3[nH]2)CC1 [Example 20, 2-[4-(1H-benzimidazol-2-ylmethyl)piperazin-1-yl]phenol]
210 to 212 °C | Fc1cccnc1N1CCN(Cc2nc3ccccc3[nH]2)CC1 [Example 28, 2-{[4-(3-fluoropyridin-2-yl)piperazin-1-yl]methyl}-1H-benzimidazole]

The remaining lines, values behind:

SMILES | melting point
O=C(N1CCCC1)n1c(CN2CCN(c3ccccn3)CC2)nc2ccccc21 [Example 9, 2-[(4-pyridin-2-ylpiperazin-1-yl)methyl]-1-(pyrrolidin-1-ylcarbonyl)-1H-benzimidazole] | 120 to 121 °C
CN(C)C(=O)n1c(CN2CCN(c3ccccn3)CC2)nc2ccccc21 [Example 10, N,N-dimethyl-2-[(4-pyridin-2-ylpiperazin-1-yl)methyl]-1H-benzimidazole-1-carboxamide] | 174 to 176 °C
N#Cc1ccccc1N1CCN(Cc2nc3ccccc3[nH]2)CC1 [Example 12, 2-[4-(1H-benzimidazol-2-ylmethyl)piperazin-1-yl]benzonitrile] | 236 to 237 °C
CSc1ccccc1N1CCN(Cc2nc3ccccc3[nH]2)CC1 [Example 18, 2-({4-[2-(methylthio)phenyl]piperazin-1-yl}methyl)-1H-benzimidazole] | 214 to 216 °C
CC1CN(c2ccccn2)CCN1Cc1nc2ccccc2[nH]1 (centres unmarked) [Example 24, 2-[(2-methyl-4-pyridin-2-ylpiperazin-1-yl)methyl]-1H-benzimidazole] | 207 to 209 °C
C[C@H]1CN(c2ccccn2)CCN1Cc1nc2ccccc2[nH]1 [Example 25, 2-{[(2S)-2-methyl-4-pyridin-2-ylpiperazin-1-yl]methyl}-1H-benzimidazole] | 149 to 151 °C
C[C@@H]1CN(c2ccccn2)CCN1Cc1nc2ccccc2[nH]1 [Example 26, 2-{[(2R)-2-methyl-4-pyridin-2-ylpiperazin-1-yl]methyl}-1H-benzimidazole] | 151 to 153 °C

Test system: Male Fitch ferrets
Parameters: species or system ferret
Conditions: in vivo, sc
Protocol: Male Fitch ferrets (body weights 1.0-1.5 kg) were obtained from Marshall Farms. Ferrets were fasted overnight before experimentation. Apomorphine or a compound of the present invention was administrated subcutaneously; animals were placed individually in observation cages and the drug-induced emesis and signs of nausea were determined (by direct observation) for a period of 90 minutes following drug injection. Nausea was characterized by behaviors such as licking, gagging, backing, head burying, and intense abdominal grooming. Emesis was usually preceded by these behaviors and was characterized by rhythmic abdominal contractions which were associated with vomiting or retching movement.
Sterile saline was used as vehicle. Six animals were used per dose.

SMILES | induction of emesis in ferrets
c1ccc(N2CCN(Cc3nc4ccccc4[nH]3)CC2)nc1 [2-[(4-pyridin-2-ylpiperazin-1-yl)methyl]-1H-benzimidazole] | did not induce emesis
